According to publication PMC4956724, “Assessing the reliability of uptake and elimination kinetics modelling approaches for estimating bioconcentration factors in the freshwater invertebrate, Gammarus pulex” (The Science of the Total Environment, 2016):
Where two headings read alike, the source gives them in different places.

What was measured:
[1] = tested on: G. pulex; conditions: cited from earlier work
[2] = tested on: G. pulex; conditions: in vivo
[3] = tested on: G. pulex exoskeleton; conditions: both, Gammarus pulex, in vivo, pH 8.2
[4] = tested on: Gammarus pulex; assay: Toxicokinetic exposure (48 h uptake, 48 h depuration) of radio-labelled pharmaceuticals, first-order one-compartment model (OECD 305); conditions: for BCF, Simultaneous BCF: kinetic BCF (k1/k2); for BCF, Simultaneous BCF / k2 (elimination rate constant), Simultaneous BCF / k1 (uptake rate constant), Simultaneous BCF: simultaneous method; for BCF, Sequential BCF a / BCF, Sequential BCF b: kinetic BCF; for BCF, Sequential BCF a / k1, Sequential BCF a / k2, Sequential BCF a: sequential using curve fitting method; for BCF, Sequential BCF b / k1, Sequential BCF b / k2, Sequential BCF b: sequential using linear regression; for k2 (elimination rate constant), Simultaneous BCF / k1 (uptake rate constant), Simultaneous BCF: 1 μg·L^− 1 (diclofenac, ibuprofen 10 μg·L^− 1), 15 °C, pH 8.2
[5] = tested on: G. pulex; assay: Re-examination of raw toxicokinetic data from Ashauer et al. (2010) using the OECD 305 modelling approach; conditions: 2010 re-modelled
[6] = Control wells without G. pulex: loss of compound by sorption to the walls of culture plates; assay type: physicochemical; conditions: control wells with exposure media only
[7] = tested on: G. pulex; design: method as in Meredith-Williams et al., 2012; conditions: ref Meredith-Williams et al., 2012; cited from earlier work

| SMILES | BAF ([1]; in vivo) | BCF, Sequential BCF ([2]; Gammarus pulex) | BCF, Simultaneous BCF ([2]; Gammarus pulex) [L kg^− 1] | k1, Sequential BCF ([2]; Gammarus pulex) [L kg^− 1 day^− 1] | k1, Simultaneous BCF ([2]; Gammarus pulex) [L kg^− 1 day^− 1] | k2, Sequential BCF ([2]; Gammarus pulex) [day^− 1] | k2, Simultaneous BCF ([2]; Gammarus pulex) [day^− 1] | further results |
| --- | --- | --- | --- | --- | --- | --- | --- | --- |
| Clc1cccc(Cl)c1Cl [1,2,3-Trichlorobenzene] | 191 | 351 L kg^− 1 | 107 | 167 | 1142 | 0.475 | 10.648 | – |
| Oc1cc(Cl)c(Cl)cc1Cl [2,4,5-Trichlorophenol] | 2635 | 8327 L kg^− 1 | 3729 | 1091 | 941 | 0.131 | 0.252 | – |
| Nc1ccc(Cl)cc1Cl [2,4-Dichloroaniline] | 56 | 179 L kg^− 1 | 50 | 70 | 140 | 0.392 | 2.830 | – |
| Oc1ccc(Cl)cc1Cl [2,4-Dichlorophenol] | 4466 | 72,728 L kg^− 1 | 9050 | 750 | 600 | 0.010 | 0.066 | – |
| O=[N+]([O-])c1ccc(CCl)cc1 [4-Nitrobenzyl chloride] | 185 | 214 L kg^− 1 | 147 | 259 | 666 | 1.212 | 4.540 | – |
| CNC(=O)O/N=C/C(C)(C)SC [Aldicarb] | 2 | 3 L kg^− 1 | 2 | 3 | 16 | 0.936 | 10.419 | – |
| CNC(=O)Oc1cccc2c1OC(C)(C)C2 [Carbofuran] | 65 | 72 L kg^− 1 | 68 | 10 | 10 | 0.140 | 0.146 | – |
| CCOP(=S)(OCC)Oc1cc(C)nc(C(C)C)n1 [Diazinon] | 82 | 101 L kg^− 1 | 77 | 161 | 276 | 1.590 | 3.569 | – |
| O=C(O)Cc1ccccc1Nc1c(Cl)cccc1Cl [Diclofenac, diclofenac] | – | – | – | – | – | – | – | Maximum concentration sorbed to exoskeleton [3]: 18%; Mean Compound Mass per Animal [3]: 2070 pg; Total Mass Compound on exoskeleton [3]: 368 (n=4) pg; BCF, Simultaneous BCF [4]: 14 L kg^− 1; BCF, Sequential BCF a [4]: 27 L kg^− 1; BCF, Sequential BCF b [4]: 21 L kg^− 1; k1, Sequential BCF a [4]: 0.253 L kg^− 1 day^− 1; k2, Sequential BCF a [4]: 0.009 day^− 1; k1, Sequential BCF b [4]: 0.269 L kg^− 1 day^− 1; k2, Sequential BCF b [4]: 0.013 day^− 1; k2 (elimination rate constant), Simultaneous BCF [4]: 0.020 day^− 1 |
| C=CC(=O)OCC [Ethylacrylate] | – | – | – | – | – | – | – | BAF ([1]; ref Ashauer et al. (2010)): 87; BCF, Sequential BCF ([5]; sequential method): 331 L kg^− 1; k1, Sequential BCF ([5]; sequential method): 67 L kg^− 1 day^− 1; k2, Sequential BCF ([5]; sequential method): 0.204 day^− 1; BCF, Simultaneous BCF ([5]; simultaneous method): 69 L kg^− 1; k1, Simultaneous BCF ([5]; simultaneous method): 110 L kg^− 1 day^− 1; k2, Simultaneous BCF ([5]; simultaneous method): 1.594 day^− 1 |
| COc1ccc(CC(C)NCC(O)c2ccc(O)c(NC=O)c2)cc1 (centres unmarked) [Formoterol, formoterol] | – | – | – | – | – | – | – | BCF, Simultaneous BCF [4]: 14 L kg^− 1; BCF, Sequential BCF a [4]: 18 L kg^− 1; BCF, Sequential BCF b [4]: 33 L kg^− 1; k1, Sequential BCF a [4]: 0.451 L kg^− 1 day^− 1; k2, Sequential BCF a [4]: 0.025 day^− 1; k1, Sequential BCF b [4]: 0.357 L kg^− 1 day^− 1; k2, Sequential BCF b [4]: 0.011 day^− 1; k1 (uptake rate constant), Simultaneous BCF [4]: 0.408 L kg^− 1 day^− 1; k2 (elimination rate constant), Simultaneous BCF [4]: 0.029 day^− 1 |
| Clc1c(Cl)c(Cl)c(Cl)c(Cl)c1Cl [Hexachlorobenzene] | – | 4160 L kg^− 1 | 2505 | 631 | 553 | 0.152 | 0.221 | – |
| O=[N+]([O-])NC1=NCCN1Cc1ccc(Cl)nc1 [Imidacloprid] | 7 | 13 L kg^− 1 | 7 | 2 | 2 | 0.175 | 0.265 | – |
| CN(C)CCCN1c2ccccc2CCc2ccccc21 [Imipramine, imipramine] | – | – | – | – | – | – | – | loss by sorption to walls of exposure well ([6]; within 2 h): 27%; loss by sorption to walls of exposure well ([6]; within 48 h): 39%; Maximum concentration sorbed to exoskeleton [3]: 3%; Mean Compound Mass per Animal [3]: 1921 pg; Total Mass Compound on exoskeleton [3]: 50 (n=2) pg; increase in BCF, sequential versus simultaneous method ([4]; in vivo): > 10 fold; BCF, Simultaneous BCF [4]: 212 L kg^− 1; BCF, Sequential BCF a [4]: 3811 L kg^− 1; BCF, Sequential BCF b [4]: 4533 L kg^− 1; BCF on average between curve fitting and linear regression approaches ([4]; sequential method): ~ 4200; k1, Sequential BCF a [4]: 1.361 L kg^− 1 day^− 1; k1, Sequential BCF b [4]: 1.360 L kg^− 1 day^− 1; k1 (uptake rate constant), Simultaneous BCF [4]: 1.408 L kg^− 1 day^− 1; k2 (elimination rate constant), Simultaneous BCF [4]: 0.007 day^− 1 |
| CCOC(=O)CC(SP(=S)(OC)OC)C(=O)OCC (centres unmarked) [Malathion] | 114 | 212 L kg^− 1 | 120 | 80 | 86 | 0.378 | 0.721 | – |
| COCCc1ccc(OCC(O)CNC(C)C)cc1 (centres unmarked) [Metoprolol, metoprolol] | – | – | – | – | – | – | – | Mean Compound Mass per Animal [3]: 74 pg; Total Mass Compound on exoskeleton [3]: 14 (n=2) pg |
| CC(C)NCC(O)COc1cccc2ccccc12 (centres unmarked) [Propranolol, propranolol] | – | – | – | – | – | – | – | Mean Compound Mass per Animal [3]: 336 pg; Total Mass Compound on exoskeleton [3]: 44 (n=1) pg |
| CNC(=C[N+](=O)[O-])NCCSCc1ccc(CN(C)C)o1 [Ranitidine, ranitidine] | – | – | – | – | – | – | – | Mean Compound Mass per Animal [3]: 238 pg; Total Mass Compound on exoskeleton [3]: 58 (n=1) pg |
| CCCCCCCCn1sc(Cl)c(Cl)c1=O [Sea nine] | 1732 | – | – | – | – | – | – | BCF, Sequential BCF [2]: 7696 L kg^− 1; BCF, Simultaneous BCF [2]: 2491 L kg^− 1; k1, Sequential BCF [2]: 950 L kg^− 1 day^− 1; k1, Simultaneous BCF [2]: 755 L kg^− 1 day^− 1; k2, Sequential BCF [2]: 0.123 day^− 1; k2, Simultaneous BCF [2]: 0.303 day^− 1 |
| CC(C)(C)NCC(O)c1cc(O)cc(O)c1 (centres unmarked) [Terbutaline, terbutaline] | – | – | – | – | – | – | – | BCF, Simultaneous BCF [4]: 12 L kg^− 1; BCF, Sequential BCF a [4]: 22 L kg^− 1; BCF, Sequential BCF b [4]: 19 L kg^− 1; k1, Sequential BCF a [4]: 0.135 L kg^− 1 day^− 1; k2, Sequential BCF a [4]: 0.006 day^− 1; k1, Sequential BCF b [4]: 0.117 L kg^− 1 day^− 1; k2, Sequential BCF b [4]: 0.006 day^− 1; k1 (uptake rate constant), Simultaneous BCF [4]: 0.136 L kg^− 1 day^− 1; k2 (elimination rate constant), Simultaneous BCF [4]: 0.011 day^− 1 |
| CNCCC(Oc1ccc(C(F)(F)F)cc1)c1ccccc1 (centres unmarked) [fluoxetine] | – | – | – | – | – | – | – | BCF [7]: 185,900 |
